Measured values as given in US20210380606A1, “5-AZAINDAZOLE DERIVATIVES AS ADENOSINE RECEPTOR ANTAGONISTS” (Merck Patent GmbH, priority 2018, published 2021).
Where two headings read alike, the source gives them in different places.

Columns and labels:
human A2A receptors = target: T1, human A2A receptors (Homo sapiens, UniProt P29274); assay: Functional human A2A receptor activity, recombinant HEK293 cells, cAMP (HTRF); assay type: cell-based; details: read-out: A2A (Category)
T1 construct: expressed in transfected cells; host or cells: HEK293
In short: (§1)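 Read-out is cellular cAMP measured by HTRF, added once a 15 min incubation had ended. cAMP reflects adenosine receptor signalling as the second messenger.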

human A2B receptors = target: T2, human A2B receptors (Homo sapiens, UniProt P29275); assay: Functional human A2B receptor activity, recombinant HEK293 cells, cAMP (HTRF); assay type: cell-based; details: read-out: A2B (Category)
T2 construct: expressed in transfected cells; host or cells: HEK293
T2 sequence (P29275 1-332): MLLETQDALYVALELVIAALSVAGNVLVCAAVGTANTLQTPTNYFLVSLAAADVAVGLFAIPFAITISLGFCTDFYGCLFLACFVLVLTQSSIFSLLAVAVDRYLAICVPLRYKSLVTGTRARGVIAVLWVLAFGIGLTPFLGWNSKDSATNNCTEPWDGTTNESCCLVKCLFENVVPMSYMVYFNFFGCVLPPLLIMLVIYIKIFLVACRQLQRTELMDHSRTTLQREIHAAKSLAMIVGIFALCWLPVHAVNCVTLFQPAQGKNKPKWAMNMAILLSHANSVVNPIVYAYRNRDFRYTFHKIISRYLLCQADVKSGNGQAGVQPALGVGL
In short: as §1

T1 sequence (P29274 whole entry): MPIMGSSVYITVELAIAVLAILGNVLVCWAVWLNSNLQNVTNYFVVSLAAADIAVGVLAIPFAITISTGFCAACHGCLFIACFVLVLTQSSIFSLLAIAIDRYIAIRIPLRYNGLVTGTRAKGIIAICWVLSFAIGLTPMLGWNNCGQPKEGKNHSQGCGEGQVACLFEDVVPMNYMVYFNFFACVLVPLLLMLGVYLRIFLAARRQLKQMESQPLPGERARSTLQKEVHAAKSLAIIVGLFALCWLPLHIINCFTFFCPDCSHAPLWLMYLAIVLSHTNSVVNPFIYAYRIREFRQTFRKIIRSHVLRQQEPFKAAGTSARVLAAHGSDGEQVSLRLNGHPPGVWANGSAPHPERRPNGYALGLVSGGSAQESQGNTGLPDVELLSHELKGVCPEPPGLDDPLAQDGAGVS

IC50 (human A2A receptors) | IC50 (human A2B receptors) | SMILES | IC50 (human A2A receptors; recombinant HEK293 cells expressing human A2A receptor, agonist NECA, cAMP HTRF, 15 min incubation) | IC50 (human A2B receptors; recombinant HEK293 cells expressing human A2B receptor, agonist NECA, cAMP HTRF, 15 min incubation)
< 100 nM | < 1000 nM | CS(=O)(=O)Cn1nc(-c2coc3ccccc23)c2cnc(C(=O)N3CCC(F)(F)CC3)cc21 [Compound 33, (3-Benzofuran-3-yl-1-methanesulfonylmethyl-1H-pyrazolo[4,3-c]pyridin-6-yl)-(4,4-difluoro-piperidin-1-yl)-methanone] |  | 
< 100 nM | < 1000 nM | O=C(c1cc2c(cn1)c(-c1cnc3c(F)cc(F)cn13)nn2CC(F)(F)F)N1CCCCC(O)C1 (racemic) [Compound 134, [3-(6,8-Difluoro-imidazo[1,2-a]pyridin-3-yl)-1-(2,2,2-trifluoro-ethyl)-1H-pyrazolo[4,3-c]pyridin-6-yl]-(3-hydroxy-azepan-1-yl)-methanone] |  | 
< 100 nM | < 1000 nM | O=C(c1cc2c(cn1)c(-c1cnc3c(F)cc(F)cn13)nn2CC(F)(F)F)N1CCC(CO)CC1 [Compound 165, [3-(6,8-Difluoro-imidazo[1,2-a]pyridin-3-yl)-1-(2,2,2-trifluoro-ethyl)-1H-pyrazolo[4,3-c]pyridin-6-yl]-(4-hydroxymethyl-piperidin-1-yl)-methanone] |  | 
< 100 nM | < 1000 nM | O=C1CN(C(=O)c2cc3c(cn2)c(-c2cnc4c(F)cc(F)cn24)nn3CC(F)(F)F)CCCN1 [Compound 201, 4-[3-(6,8-Difluoro-imidazo[1,2-a]pyridin-3-yl)-1-(2,2,2-trifluoro-ethyl)-1H-pyrazolo[4,3-c]pyridine-6-carbonyl]-1,4-diazepan-2-one] |  | 
< 100 nM | < 100 nM | CS(=O)(=O)Cn1nc(-c2cnn3ccccc23)c2cnc(C(=O)N3CCCOCC3)cc21 [Compound 17, (1-Methanesulfonylmethyl-3-pyrazolo[1,5-a]pyridin-3-yl-1H-pyrazolo[4,3-c]pyridin-6-yl)-1,4-oxazepan-4-yl-methanone] |  | 
< 100 nM | < 1000 nM | N#CCn1nc(-c2cnc3ccc(F)cn23)c2cnc(C(=O)N3CCCCCC3)cc21 [Compound 7, [6-(Azepane-1-carbonyl)-3-(6-fluoro-imidazo[1,2-a]pyridin-3-yl)-pyrazolo[4,3-c]pyridin-1-yl]-acetonitrile] |  | 
< 100 nM | < 1000 nM | O=C(c1cc2c(cn1)c(-c1c[nH]c3ccccc13)nn2CC(F)(F)F)N1CC2CCC(C1)O2 [Compound 243, [3-(1H-indol-3-yl)-1-(2,2,2-trifluoroethyl)pyrazolo[4,3-c]pyridin-6-yl]-(8-oxa-3-azabicyclo[3.2.1]octan-3-yl)methanone] |  | 
< 100 nM | < 1000 nM | O=C(c1cc2c(cn1)c(-c1cnc3ccc(O)cn13)nn2CC(F)(F)F)N1CCCCCC1 [Compound 68, Azepan-1-yl-[3-(6-hydroxy-imidazo[1,2-a]pyridin-3-yl)-1-(2,2,2-trifluoro-ethyl)-1H-pyrazolo[4,3-c]pyridin-6-yl]-methanone] |  | 
< 100 nM | < 100 nM | NC(=O)c1ccc2ncc(-c3nn(CC(F)(F)F)c4cc(C(=O)N5CCCCCC5)ncc34)n2c1 [Compound 46, 3-[6-(Azepane-1-carbonyl)-1-(2,2,2-trifluoro-ethyl)-1H-pyrazolo[4,3-c]-pyridin-3-yl]-imidazo[1,2-a]pyridine-6-carboxylic acid amide] |  | 
< 100 nM | < 100 nM | O=C(c1cc2c(cn1)c(-c1coc3ccccc13)nn2CC(F)(F)F)N1CCOCC(F)(F)C1 [Compound 217] |  | 
< 100 nM | < 1000 nM | C[C@@H]1COC[C@H](C)N1C(=O)c1cc2c(cn1)c(-c1cnc3c(F)cc(F)cn13)nn2CC(F)(F)F [Compound 183, Cis-[3-(6,8-Difluoro-imidazo[1,2-a]pyridin-3-yl)-1-(2,2,2-trifluoro-ethyl)-1H-pyrazolo[4,3-c]pyridin-6-yl]-(3,5-dimethyl-morpholin-4-yl)-methanone] |  | 
< 100 nM | < 100 nM | O=C(c1cc2c(cn1)c(-c1cnc3c(F)cc(F)cn13)nn2CC(F)(F)F)N1CCCC(O)CC1 (stereo not shown) [Compound 177, [3-(6,8-Difluoro-imidazo[1,2-a]pyridin-3-yl)-1-(2,2,2-trifluoro-ethyl)-1H-pyrazolo[4,3-c]pyridin-6-yl]-(4-hydroxy-azepan-1-yl)-methanone] |  | 
< 100 nM | < 100 nM | [2H]C1([2H])COCCN(C(=O)c2cc3c(cn2)c(-c2coc4ccc(F)cc24)nn3CC(F)(F)F)C1 [Compound 120, [3-(5-fluorobenzofuran-3-yl)-1-(2,2,2-trifluoroethyl)pyrazolo[4,3-c]pyridin-6-yl]-(6,6-dideuterio-1,4-oxazepan-4-yl)methanone] |  | 
< 100 nM | < 1000 nM | O=C(c1cc2c(cn1)c(-c1cnc3ccc(F)cn13)nn2CC(F)(F)F)N1CCCOCC1 [Compound 80, [3-(6-Fluoro-imidazo[1,2-a]pyridin-3-yl)-1-(2,2,2-trifluoro-ethyl)-1H-pyrazolo[4,3-c]pyridin-6-yl]-1,4-oxazepan-4-yl-methanone] |  | 
< 100 nM | < 1000 nM | O=C(c1cc2c(cn1)c(-c1cnc3cc(F)c(Cl)cn13)nn2CC(F)(F)F)N1CCCCCC1 [Compound 74, Azepan-1-yl-[3-(6-chloro-7-fluoro-imidazo[1,2-a]pyridin-3-yl)-1-(2,2,2-trifluoro-ethyl)-1H-pyrazolo[4,3-c]pyridin-6-yl]-methanone] |  | 
< 100 nM | < 100 nM | O=C(c1cc2c(cn1)c(-n1cnc3ccc(F)cc31)nn2CC(F)(F)F)N1CCCOCC1 [Compound 252, [3-(6-fluorobenzimidazol-1-yl)-1-(2,2,2-trifluoroethyl)pyrazolo[4,3-c]pyridin-6-yl]-(1,4-oxazepan-4-yl)methanone] |  | 
 |  | O=C(c1cc2c(cn1)c(-c1cnc3c(F)cc(F)cn13)nn2CC(F)(F)F)N1CC2COCC2C1 (stereo not shown) [Compound 154, [3-(6,8-Difluoro-imidazo[1,2-a]pyridin-3-yl)-1-(2,2,2-trifluoro-ethyl)-1H-pyrazolo[4,3-c]pyridin-6-yl]-(tetrahydro-furo[3,4-c]pyrrol-5-yl)-methanone] | < 100 nM | < 1000 nM
< 100 nM | < 1000 nM | NC(=O)c1ccc2ncc(-c3nn(CC(F)(F)F)c4cc(C(=O)N5CC6CCC(C5)O6)ncc34)n2c1 [Compound 247, 3-[6-(8-Oxa-3-aza-bicyclo[3.2.1]octane-3-carbonyl)-1-(2,2,2-trifluoro-ethyl)-1H-pyrazolo[4,3-c]pyridin-3-yl]-imidazo[1,2-a]pyridine-6-carboxylic acid amide] |  | 
< 100 nM | < 100 nM | CS(=O)(=O)Cn1nc(-c2coc3ccccc23)c2cnc(C(=O)N3CCCOCC3)cc21 [Compound 16, (3-Benzofuran-3-yl-1-methanesulfonylmethyl-1H-pyrazolo[4,3-c]pyridine-6-yl)-1,4-oxazepan-4-yl-methanone] |  | 
< 100 nM | < 1000 nM | COCC1CCCN1C(=O)c1cc2c(cn1)c(-c1coc3ccccc13)nn2CS(C)(=O)=O (stereo not shown) [Compound 34, (3-Benzofuran-3-yl-1-methanesulfonylmethyl-1H-pyrazolo[4,3-c]pyridin-6-yl)-(2-methoxymethyl-pyrrolidin-1-yl)-methanone] |  | 
< 100 nM | < 1000 nM | O=C(c1cc2c(cn1)c(-c1cnc3ccc(F)cn13)nn2CC(F)(F)F)N1CC2CCC(C1)O2 [Compound 82, [3-(6-Fluoro-imidazo[1,2-a]pyridin-3-yl)-1-(2,2,2-trifluoro-ethyl)-1H-pyrazolo[4,3-c]pyridin-6-yl]-(8-oxa-3-aza-bicyclo[3.2.1]oct-3-yl)-methanone] |  | 
< 100 nM | < 100 nM | CC1CC(O)CCN1C(=O)c1cc2c(cn1)c(-c1cnc3c(F)cc(F)cn13)nn2CC(F)(F)F (stereo not shown) [Compound 138, [3-(6,8-Difluoro-imidazo[1,2-a]pyridin-3-yl)-1-(2,2,2-trifluoro-ethyl)-1H-pyrazolo[4,3-c]pyridin-6-yl]-(4-hydroxy-2-methyl-piperidin-1-yl)-methanone] |  | 
< 100 nM | < 1000 nM | O=C(c1cc2c(cn1)c(-c1cnc3c(F)cc(F)cn13)nn2CC(F)(F)F)N1CC2CCC(C1)O2 [Compound 83, [3-(6,8-Difluoro-imidazo[1,2-a]pyridin-3-yl)-1-(2,2,2-trifluoro-ethyl)-1H-pyrazolo[4,3c]pyridin-6-yl]-(8-oxa-3-aza-bicyclo[3.2.1]oct-3-yl)-methanone] |  | 
< 100 nM | < 100 nM | O=C(c1cc2c(cn1)c(-c1cnc3c(F)cccn13)nn2CC(F)(F)F)N1CCCCCC1 [Compound 62, Azepan-1-yl-[3-(8-fluoro-imidazo[1,2-a]pyridin-3-yl)-1-(2,2,2-trifluoro-ethyl)-1H-pyrazolo[4,3-c]pyridin-6-yl]-methanone] |  | 
< 100 nM | < 1000 nM | O=C(c1cc2c(cn1)c(-c1coc3ccccc13)nn2CC(F)F)N1CCCOCC1 [Compound 103, [3-Benzofuran-3-yl-1-(2,2-difluoro-ethyl)-1H-pyrazolo[4,3-c]pyridin-6-yl]-1,4-oxazepan-4-yl-methanone] |  | 
< 100 nM | < 1000 nM | CC1(O)CCN(C(=O)c2cc3c(cn2)c(-c2cnn4ccccc24)nn3CC(F)(F)F)CC1 [Compound 117, (4-hydroxy-4-methyl-1-piperidyl)-[3-pyrazolo[1,5-a]pyridin-3-yl-1-(2,2,2-trifluoroethyl)pyrazolo[4,3-c]pyridin-6-yl]methanone] |  | 
